Source: a melting point compilation (Tetko et al.; mined from patent text by program, amines drawn as free bases though some values may be those of a salt)

melting point [°C] | Compound
219 to 220 | O=C(Cl)c1cccc(N2CCOCC2)c1
214 to 215 | CCc1ccc(Cl)c(S(=O)(=O)NC(=O)c2cn3cc(C(F)(F)F)cc(Cl)c3n2)c1
224 to 227 | COc1ccccc1-c1cc(O)c(-c2ccccc2C(=O)O)nn1
126 to 127 | CC(C)(C)OC(=O)Nc1ccc(Cl)nc1
94 to 95 | COC(=O)c1ccc2c(c1)C(c1ccccn1)=CC(C)(C)O2
130 to 136 | NC(=O)c1n[nH]c(S(=O)(=O)c2ccc(Br)cc2)n1
277 to 281 | CCn1ccc(C(=O)c2sc(NC(=O)c3ccncc3)nc2-c2ccco2)cc1=O
89 to 99 | Fc1cccc(C=Cc2nccc3ccccc23)c1
157 | COc1cc2c(cc1OC)C(C(C#N)SCCOC(C)=O)=NCC2 (centres undefined)
92 to 95 | COC(=O)C(Oc1cc(OCc2ccsc2)ccc1C#N)c1ccccc1Br (racemic)
93 to 95 | CC(=O)N1c2ccc(F)cc2CC1C#N (centres undefined)
97 to 99 | Cc1cccc(C=Cc2c(C(C)C)nc(C(C)C)c(CO)c2-c2ccc(F)cc2)c1
150 to 152 | CCc1noc(C(=O)Nc2ccccc2)c1C(=O)O
138 to 141 | CNc1ccccc1C(=O)NCCCn1ccnc1
180 to 184 | COC(=O)N=CNNc1cc(SCC(C)C)ccc1NC(C)=O
182 to 183 | COc1cc(NC(=O)OCc2ccccc2)c(Cl)cc1C(=O)O

melting point [°C] | Compound
53 to 57 | OCC1Cc2cc(F)cc(Br)c2O1 (centres undefined)
131 to 133 | CSc1ccc(C(=O)c2c(C)sc3c2CCC3C(=O)O)cc1 (centres undefined)
74 to 75 | Cc1cccc2c1SC1(CC1)C2=O
176 to 177 | CSc1nc(O)nn1-c1ccccc1
204 to 206 | COc1ccc2c3c(n(C)c2c1)SCCC3=O
178 | CCOC(=O)CC1=CC2C(CCC3(C)C(O)CCC23)c2ccc(O)cc21 (centres undefined)
76 to 77 | CCOC(=O)c1ccc(N)c(C)c1
143 | N#CC(C(N)=S)c1ccc(Cl)c(Cl)c1 (centres undefined)
75 to 77 | CCOCn1c(-c2ccc(Cl)cc2)c(C#N)c(Sc2ccc(Cl)c(Cl)c2)c1C(F)(F)F
224 to 226 | CC(c1oc2ccccc2c(=O)c1-c1cccc(F)c1)n1nc(-c2ccc(OC(F)(F)F)cc2)c2c(N)ncnc21 (centres undefined)
255 to 260 | CC(=O)c1cc([N+](=O)[O-])c(N)cc1C#N
194 to 196 | CC(=O)N1CCC(C(=O)Nc2ccccc2Oc2ccc(Cl)cc2Cl)CC1
172 to 174 | CN1CC[C@@H](c2c(O)cc(O)c3c(=O)cc(-c4ccc(N)cc4)oc23)[C@@H]1CO
200 to 202 | CCc1ccnc2cc(OC)c(O)cc12
199 to 200 | OC(c1ccccc1)(c1ccc(F)cc1)c1ncc[nH]1 (centres undefined)

Continued, compound first:

Compound | melting point [°C]
Cc1ccccc1Nc1nc(Cl)nc2ccccc12 | 192 to 194
O=c1[nH]c2ccccc2n1CCN1CCCCC1 | 123 to 125
Cc1ccc(S(=O)(=O)N[C@@H]2CCCC[C@H]2N)cc1 (relative stereo) | 93 to 95
CC(C)(C)c1cc(C(=O)Nc2cccnc2NC(=O)NC23CC4CC(CC(C4)C2)C3)cc(C(C)(C)C)c1O | 198 to 202
Cc1cc(COc2ccc(C(=O)NC[C@@H](C(=O)NO)N3CCN(S(C)(=O)=O)CC3)cc2)c2ccccc2n1 | 175
CSC(C)(C)C(=O)N[C@@H](CS)C(=O)O | 110 to 112
Cc1noc(NS(=O)(=O)c2ccsc2C(=O)NCc2ccccc2)c1Br | 186 to 190
CCn1c(=O)c2nc(-c3ccc(/C=C/C(=O)O)cc3)[nH]c2n(C)c1=O | > 300
CC(CO)NC(=O)C(F)(F)F (centres undefined) | 80 to 81
CCOC(=O)C(=O)CC(=O)c1cn(Cc2ccncc2)c2ccccc2c1=O | 168 to 169
Cc1ccc(-c2ccc3c(c2)C=C(C(CN(C)C2CCOCC2)Oc2ccccc2)CCO3)cc1 (centres undefined) | 135 to 136
CNS(=O)(=O)Nc1ncccc1C(=O)OC | 133 to 139
O=C(O)c1cccc(-c2cccc3sc(Cc4cccc(C(F)(F)F)c4)nc23)c1 | 152 to 153
CC(C(=O)O)c1ccc2oc(Nc3ccc(Cl)cc3)nc2c1 (centres undefined) | 206 to 208
O=C(NCC1CCCC1)NC1CCN(CC23CC(c4ccccc42)c2ccccc23)CC1 | 197 to 198
COc1ccc(-n2nnnc2C(F)(F)F)cc1[C@H]1CO[C@]2(CCCN(Cc3nc(=O)[nH][nH]3)[C@H]2c2ccccc2)C1 | 186 to 187
CC(C)c1[nH]c2ccccc2c1Sc1ccc(O)cc1 | 116
COc1ccnc(CCc2nc3cc(Br)cnc3[nH]2)c1 | 207 to 209
CC(C)Nc1cccnc1N1CCN(C(=O)c2ccc(C(=O)NCCO)cc2)CC1 | 182 to 184
COCCN(CCOC)Cc1nc(-c2ncn3c2[C@@H]2CCN2C(=O)c2c(Cl)cccc2-3)no1 | 188 to 190
CCCc1ccc(-c2ccc(CCc3ccc(Cl)c(F)c3)cc2)cc1 | 63.6
CN(C)CC#CCNC(=O)C(O)(c1ccccc1)C1CCCCC1 (single isomer, unassigned; (-)) | 120 to 121
O=C(O)c1c(Cc2cc3c(cc2Cl)OCO3)c(-c2ccco2)nn1CC1CCCCC1 | 248

Compound | melting point [°C]
O=C1CCC(N2Cc3c(OCc4cccc(Cl)c4Cl)cccc3C2=O)C(=O)N1 (centres undefined) | 272 to 274
CN(Cc1ccccc1)C(=O)Nc1ccc(CN2C(=O)C3CCCC3N(C(=O)CN3C(=O)c4ccccc4C3=O)c3ccccc32)cc1 (centres undefined) | 156 to 158
Cc1ccn2nc(S(=O)(=O)Nc3c(Cl)cccc3Cl)nc2n1 | 126 to 129
CC(C)Cn1c(=O)n(C)c(=O)c2c(N)ncnc21 | 192 to 193
O=c1[nH]c2ccccc2c2c(CCC3CCNCC3)n(-c3ccccc3)nc12 | 250 to 252
CCC(CC)c1nnc(SC)n(N)c1=O | 50 to 56
CCC(C)NCC(O)COc1ccc2c(=O)c(-c3ccccc3)c(-c3ccccc3)oc2c1 (centres undefined) | 139 to 140
c1cc(-c2cnc(-c3ccc(-c4cnco4)o3)o2)nc(-c2cnc(-c3ccc(-c4cnco4)o3)o2)c1 | > 250
CC1(C)SC2C(N)C(=O)N2C1NC(=O)OCC(Cl)(Cl)Cl (centres undefined) | 151 to 155
Cc1cc(Br)ccc1NC(=O)c1cc([N+](=O)[O-])ccc1NC(=O)CF | 247 to 249
c1ccc(Nc2nsc3nc4ccccc4n23)nc1 | 156 to 157
Cc1cc2nnc(C)n2nc1-c1cccc(C(F)(F)F)c1 | 185 to 187
O=C(Nc1cccc(S(=O)(=O)N2CCOCC2)c1)c1cnn2c(C(F)(F)F)cc(-c3ccc(Cl)c(Cl)c3)nc12 | 239
CCc1nc2cc(COC)c(Cl)cc2n1-c1ccc(CCNC(=O)NS(=O)(=O)c2ccc(C)cc2)cc1 | 135
COc1cc2c(cc1OC)NC(=O)N(CCCN(C)CCCSc1ccccc1)CC2 | 107 to 110
O=Cc1nn(-c2c(Cl)cc(C(F)(F)F)cc2Cl)cc1SC(F)(F)F | 79 to 81
CC1=Cc2ccsc2Sc2ccccc21 | 70 to 71
CCCCC1Cc2c(c3cccnc3n(-c3ccccc3)c2=O)O1 (centres undefined) | 179 to 180
CN(C)c1ccc(OCC(=O)N[C@@H](CC(N)=O)C(=O)N[C@@H](Cc2ccccc2)[C@H](O)C(=O)N2CCC[C@H]2C(=O)NC(C)(C)C)cc1 | 102 to 104
COc1ccc(Cl)cc1NC(=NN)c1cc(C(F)(F)F)cc(C(F)(F)F)c1 | 117 to 120
N#CC(c1ccc(C(O)C(Cc2cccc(OC(F)(F)C(F)F)c2)NC(=O)c2cccc3c2C=CCCC3)cc1)N1CCCCC1 (racemic) | 152 to 154
COc1ccc(/C=N/Nc2nc(=O)[nH]cc2F)cc1 | 202 to 208
CC(C)C1=CC(=O)C2=C(CCC3C(C)(C(=O)O)CCCC23C)C1=O (centres undefined) | 207 to 209

Compound | melting point [°C]
O=C1CCCCN1S(=O)(=O)c1ccc(N2CCCCCC2)cc1 | 85 to 88
Cc1cc(-n2ccnc2)c2cccc(OCc3c(Cl)ccc(S(=O)(=O)N4CCC[C@H]4C(=O)NCC4CCN(CCO)CC4)c3Cl)c2n1 | 160
CCOC(=O)C(=O)Nc1nc(C)cs1 | 171 to 173
COC1(C(O)CN2CCC(n3c(=O)[nH]c4ccccc43)CC2)COc2ccccc2O1 (centres undefined) | 143 to 144
COc1cc(Br)c([N+](=O)[O-])cc1OC | 120 to 122
Fc1ccc(-c2cn([C@H]3CN4CCC3CC4)nn2)cc1F | 122
O=C(Cc1ccccc1C1CCCC1)N[C@H]1CCN(CCc2ccccc2)C1 | 117 to 119
COP(=O)(OC)C1OC(=O)c2ccccc21 (centres undefined) | 95 to 96.5
CCCCCCCCCCCCCC/C=C\CC[C@@H]1OC(=O)C(O)=C1O | 64 to 66
CC1CN(c2ccc(S(N)(=O)=O)cc2)CC(C)N1CCC1OCCc2ccccc21 (centres undefined) | 170 to 175
OCCc1c[nH]c(-c2ccccc2OCc2ccccc2)n1 | 131 to 133
CCCCNc1c(C)cccc1C | 124 to 131
Cc1c(F)c(N2CCNC(C)C2)cc2c1C(=O)CCN2C1CC1 (centres undefined) | 98 to 100
COc1ccc(NC(=O)N(Cc2ccccc2)Cc2cccnc2)c(NC(=O)c2cc(C(C)(C)C)c(O)c(C(C)(C)C)c2)c1 | 120 to 128
CON=Cc1nc2c(N)nc3cc(Br)ccc3c2s1 | 262 to 264
CCc1nn(Cc2ccccn2)c2c(=O)[nH]c(-c3cc(S(C)(=O)=O)ccc3OCC(C)C)nc12 | 223 to 225
O=C(O)CCCCCCCCCC=Cc1ccco1 | 38 to 39
O=C(O)c1ccc(-c2ccc3cc(OCc4ccccc4)c(C45CC6CC(CC(C6)C4)C5)cc3c2)cc1 | 305 to 310
CCCC[C@H](NC(=O)[C@H](CC(C)C)NC(=O)c1ccc(OC)cc1)C(=O)CSCc1ccco1 | 124
COc1ccc(-c2nc(-c3ccc(OC)cc3)nc(-c3ccccc3O)n2)cc1 | 205 to 206
CC(Oc1ccc(Oc2ccc(C#N)cc2)cc1)C(=O)Nc1ccccc1 (centres undefined) | 133 to 134
CCCN(CCC)Cc1csc(-c2ncn3c2CN(C)C(=O)c2c-3ccc(F)c2Cl)n1 | 123
